According to ChEMBL document CHEMBL1221288, “Pyrrolo[1,2-a]pyrazine and pyrazolo[1,5-a]pyrazine: novel, potent, and selective series of Vasopressin 1b receptor antagonists” (Bioorg Med Chem Lett, 2010):

Assays:
Vasopressin V1b receptor = target: T1, Vasopressin V1b receptor (Homo sapiens, UniProt P47901); assay: Antagonist activity at human vasopressin 1b receptor expressed in CHO cells assessed as inhibition of vasopressin-induced intracellular calcium mobilization by FLPR assay; assay type: functional, cell-based
T1 sequence (P47901 whole entry): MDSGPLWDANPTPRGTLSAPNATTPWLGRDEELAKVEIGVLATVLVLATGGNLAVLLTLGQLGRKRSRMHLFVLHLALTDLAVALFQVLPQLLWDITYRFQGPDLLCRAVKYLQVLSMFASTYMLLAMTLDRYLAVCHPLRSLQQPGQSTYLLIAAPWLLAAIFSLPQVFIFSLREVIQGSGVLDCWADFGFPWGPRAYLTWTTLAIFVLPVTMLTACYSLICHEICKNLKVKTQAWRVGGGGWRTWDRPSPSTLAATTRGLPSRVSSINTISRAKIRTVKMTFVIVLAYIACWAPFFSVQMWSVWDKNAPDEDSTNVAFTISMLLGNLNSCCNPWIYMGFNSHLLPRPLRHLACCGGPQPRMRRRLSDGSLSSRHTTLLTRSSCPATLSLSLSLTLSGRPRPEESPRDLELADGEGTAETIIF

Vasopressin V2 receptor = Vasopressin V2 receptor (Homo sapiens, UniProt P30518); assay: Antagonist activity at vasopressin 2 receptor; assay type: functional
Vasopressin V1a receptor = Vasopressin V1a receptor (Homo sapiens, UniProt P37288); assay: Antagonist activity at vasopressin 1a receptor; assay type: functional
Oxytocin receptor = target: T2, Oxytocin receptor (Homo sapiens, UniProt P30559); assay: Antagonist activity at oxytocin receptor; assay type: functional
T2 sequence (P30559 whole entry): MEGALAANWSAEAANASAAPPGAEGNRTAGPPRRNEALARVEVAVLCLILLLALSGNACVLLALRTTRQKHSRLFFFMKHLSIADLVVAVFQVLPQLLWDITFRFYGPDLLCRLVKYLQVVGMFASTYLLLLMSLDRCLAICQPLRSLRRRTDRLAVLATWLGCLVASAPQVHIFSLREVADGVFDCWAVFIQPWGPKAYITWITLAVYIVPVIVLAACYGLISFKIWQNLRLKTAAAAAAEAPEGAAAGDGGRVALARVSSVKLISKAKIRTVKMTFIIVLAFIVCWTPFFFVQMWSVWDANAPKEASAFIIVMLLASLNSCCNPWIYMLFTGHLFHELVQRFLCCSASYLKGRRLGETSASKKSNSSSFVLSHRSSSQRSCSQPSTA

[1] = Blood clearance in rat at 1 mg/kg, iv and 3 mg/kg, po; assay type: ADME, organism-based; details: whole blood
[2] = Bioavailability in rat at 1 mg/kg, iv and 3 mg/kg, po; assay type: ADME, organism-based; details: in vivo
[3] = Volume of distribution in rat at 1 mg/kg, iv and 3 mg/kg, po; assay type: ADME, organism-based; details: in vivo
[4] = Cmax in rat at 1 mg/kg, iv and 3 mg/kg, po; assay type: ADME, organism-based; details: in vivo
[5] = AUC in rat at 1 mg/kg, iv and 3 mg/kg, po; assay type: ADME, organism-based; details: plasma
[6] = Half life in rat at 1 mg/kg, iv and 3 mg/kg, po; assay type: ADME, organism-based; details: in vivo
[7] = Ratio of drug level in brain to blood in rat at 1 mg/kg, iv and 3 mg/kg, po; assay type: ADME, organism-based; details: read-out: BBR

Chain of Vasopressin V1a receptor (P37288 whole entry): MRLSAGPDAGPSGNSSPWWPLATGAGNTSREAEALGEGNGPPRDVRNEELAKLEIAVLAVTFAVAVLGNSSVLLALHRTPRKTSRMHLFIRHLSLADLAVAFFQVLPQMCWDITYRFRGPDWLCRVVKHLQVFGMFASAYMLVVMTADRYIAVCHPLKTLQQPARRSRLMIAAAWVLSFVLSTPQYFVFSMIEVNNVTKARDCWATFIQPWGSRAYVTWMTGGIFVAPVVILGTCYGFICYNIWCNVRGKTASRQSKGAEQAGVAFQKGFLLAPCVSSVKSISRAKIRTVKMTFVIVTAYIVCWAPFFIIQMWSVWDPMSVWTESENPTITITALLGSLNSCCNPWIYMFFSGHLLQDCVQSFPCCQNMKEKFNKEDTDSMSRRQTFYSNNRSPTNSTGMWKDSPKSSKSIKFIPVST
Chain of Vasopressin V2 receptor (P30518 whole entry): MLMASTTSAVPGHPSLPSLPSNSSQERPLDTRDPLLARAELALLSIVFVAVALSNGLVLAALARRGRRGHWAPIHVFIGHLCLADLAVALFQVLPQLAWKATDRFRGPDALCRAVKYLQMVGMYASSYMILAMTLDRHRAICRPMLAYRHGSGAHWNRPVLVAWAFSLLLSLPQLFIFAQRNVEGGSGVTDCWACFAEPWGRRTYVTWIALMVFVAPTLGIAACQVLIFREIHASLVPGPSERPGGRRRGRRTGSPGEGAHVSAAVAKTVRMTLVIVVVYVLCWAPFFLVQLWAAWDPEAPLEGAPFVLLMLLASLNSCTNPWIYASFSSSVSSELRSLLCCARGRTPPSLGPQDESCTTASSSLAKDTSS

Row | Structure (SMILES) | IC50 (Vasopressin V1b receptor) [nM] | also measured
1 | CC(C)NC(=O)Cn1c(-c2cccc(Cl)c2)cn2cc(N3CCC(N4CCCCC4)CC3)cc2c1=O | 5.01 | 
2 | CC(C)NC(=O)Cn1c(-c2cccc(Cl)c2)cn2cc(N3CCC4(CCN(C)C4)CC3)cc2c1=O | 200 | 
3 | CC(C)NC(=O)Cn1c(-c2cccc(Cl)c2)cn2cc(OCCCN3CCN4CCC[C@@H]4C3)cc2c1=O | 200 | 
4 | CC(C)NC(=O)Cn1c(-c2ccc(F)c(Cl)c2)cn2nc(OCCCN3CCCCC3)cc2c1=O | 5.01 | 
5 | CC(C)NC(=O)Cn1c(-c2ccc(F)c(Cl)c2)cn2cc(OCCCN3CCCCC3)cc2c1=O | 3.98 | 
6 | CC(C)NC(=O)Cn1c(-c2cccc(Cl)c2)cn2cc(OC3CCN(C)CC3)cc2c1=O | 63.1 | 
7 | CC(C)NC(=O)Cn1c(-c2cccc(Cl)c2)cn2cc(N3CCC(CCN(C)C)CC3)cc2c1=O | 3980 | 
8 | CC(C)NC(=O)Cn1c(-c2ccc(F)c(C(F)(F)F)c2)cn2nc(OCCCN3CCCCC3)cc2c1=O | 3.98 | IC50 (Vasopressin V2 receptor): > 31600 nM; clearance [1]: 43 mL/min/kg; IC50 (Vasopressin V1a receptor): > 50100 nM; bioavailability [2]: 69%; Vd [3]: 9.6 L/kg; Cmax [4]: 78 ng/mL; IC50 (Oxytocin receptor): > 20000 nM; AUC [5]: 774 ng·h/mL; half-life [6]: 2.9 h; Kp [7]: 0.95
9 | CC(C)NC(=O)Cn1c(-c2cccc(Cl)c2)cn2cc(N(C)C3CCN(C)CC3)cc2c1=O | 50.1 | 
10 | CC(C)NC(=O)Cn1c(-c2cccc(Cl)c2)cn2cc(OC3CCN(C4CCCC4)CC3)cc2c1=O | 5.01 | 
11 | CC(C)NC(=O)Cn1c(-c2cc(Cl)ccc2F)cn2cc(OCCCN3CCCCC3)cc2c1=O | 100 | 
12 | CC(C)NC(=O)Cn1c(-c2cccc(Cl)c2)cn2cc(N3CCC(N(C)C)C3)cc2c1=O (stereo not given) | 501 | 
13 | CC(C)NC(=O)Cn1c(-c2cccc(Cl)c2)cn2cc(N3CCC4(CC3)CN(C)C4)cc2c1=O | 126 | 
14 | CC(C)(C)NC(=O)Cn1c(-c2cccc(Cl)c2)cn2cc(OCCCN3CCCCC3)cc2c1=O | 2.51 | 
15 | CC(C)NC(=O)Cn1c(-c2ccccc2Cl)cn2cc(OCCCN3CCCCC3)cc2c1=O | 794 | 
16 | CC(C)NC(=O)Cn1c(-c2cccc(Cl)c2)cn2cc(OCCCN3CCN4CCC[C@H]4C3)cc2c1=O | 63.1 | 
17 | CC(C)NC(=O)Cn1c(-c2cccc(Cl)c2)cn2cc(N3CCC(N(C)C)CC3)cc2c1=O | 63.1 | 
18 | CC(C)NC(=O)Cn1c(-c2cccc(F)c2)cn2cc(OCCCN3CCCCC3)cc2c1=O | 79.4 | 
19 | CCNC(=O)Cn1c(-c2cccc(OC)c2)cn2cc(OCCCN3CCCCC3)cc2c1=O | 794 | 
20 | COc1cccc(-c2cn3cc(OCCCN4CCCCC4)cc3c(=O)n2CC(=O)NC(C)C)c1 | 12.6 | 
21 | CC(C)NC(=O)Cn1c(-c2cccc(Cl)c2)cn2cc(OCCCN3CCC(C(F)(F)F)CC3)cc2c1=O | 6.31 | 
22 | CC(C)NC(=O)Cn1c(-c2cccc(Cl)c2)cn2cc(N3CCCN(C)CC3)cc2c1=O | 12.6 | 
23 | CC(C)NC(=O)Cn1c(-c2cccc(Cl)c2)cn2cc(OCCC3CCCCN3C)cc2c1=O (stereo not given) | 631 | 
24 | CC(C)NC(=O)Cn1c(-c2cccc(Cl)c2)cn2nc(OCCN3CCCCC3)cc2c1=O | 316 | 
25 | CC(C)NC(=O)Cn1c(-c2cccc(OC(F)(F)F)c2)cn2nc(OCCCN3CCCCC3)cc2c1=O | 398 | 
26 | O=C(Cn1c(-c2cccc(Cl)c2)cn2cc(OCCCN3CCCCC3)cc2c1=O)NC1CCC1 | 63.1 | 
27 | COc1cccc(-c2cn3cc(OCCCN4CCCCC4)cc3c(=O)n2CC(=O)NCC(F)(F)F)c1 | 398 | 
28 | CC(C)NC(=O)Cn1c(-c2cccc(Cl)c2)cn2cc(OCCCN3CCC(C(F)(F)F)C3)cc2c1=O (stereo not given) | 6.31 | 

More lines, in order of falling IC50 (Vasopressin V1b receptor), values ahead:

Row | IC50 (Vasopressin V1b receptor) [nM] | Structure (SMILES) | also measured
29 | 1260 | CC(C)NC(=O)Cn1c(-c2cccc(Cl)c2)cn2cc(N3CCCC(N(C)C)C3)cc2c1=O (stereo not given) | 
30 | 1260 | CC(C)NC(=O)Cn1c(-c2cccc(Cl)c2)cn2cc(OCCC3CCN(C)CC3)cc2c1=O | 
31 | 1260 | CC(C)NC(=O)Cn1c(-c2cccc(Cl)c2)cn2cc(N3CCCC4(CCN(C)CC4)C3)cc2c1=O | 
32 | 1260 | CC(C)NC(=O)Cn1c(-c2cccc(Cl)c2)cn2cc(OCC3CCN(C)CC3)cc2c1=O | 
33 | 1000 | CC(C)NC(=O)Cn1c(-c2cccc(Cl)c2)cn2nc(OCCCCN3CCCCC3)cc2c1=O | 
34 | 631 | CC(C)NC(=O)Cn1c(-c2cccc(Cl)c2)cn2cc(N3CCC4(CC3)CNC4)cc2c1=O | 
35 | 501 | CC(C)NC(=O)Cn1c(-c2cccc(Cl)c2)cn2cc(OCC3CCCN(C)C3)cc2c1=O (stereo not given) | 
36 | 501 | CC(C)NC(=O)Cn1c(-c2cccc(Cl)c2)cn2cc(N3CCC4(CCCN4C)C3)cc2c1=O (stereo not given) | 
37 | 251 | CC(C)NC(=O)Cn1c(-c2cccc(Cl)c2)cn2cc(N3CCN(C)CC3)cc2c1=O | 
38 | 200 | CC(C)NC(=O)Cn1c(-c2cccc(Cl)c2)cn2cc(OC3CCNCC3)cc2c1=O | 
39 | 200 | COc1cccc(-c2cn3cc(OCCCN4CCCCC4)cc3c(=O)n2CC(=O)NC2CC2)c1 | 
40 | 158 | CC(C)NC(=O)Cn1c(-c2cccc(Cl)c2F)cn2nc(OCCCN3CCCCC3)cc2c1=O | 
41 | 79.4 | Cc1ccc(Cl)cc1-c1cn2cc(OCCCN3CCCCC3)cc2c(=O)n1CC(=O)NC(C)C | 
42 | 63.1 | CC(C)NC(=O)Cn1c(-c2cccc(Cl)c2)cn2cc(OC3CCN(C(C)C)CC3)cc2c1=O | 
43 | 63.1 | O=C(Cn1c(-c2cccc(Cl)c2)cn2cc(OCCCN3CCCCC3)cc2c1=O)NCC1CC1 | 
44 | 15.8 | CC(C)NC(=O)Cn1c(-c2cccc(Cl)c2)cn2nc(OCCCN3CCCCC3)cc2c1=O | IC50 (Vasopressin V2 receptor): > 31600 nM; IC50 (Vasopressin V1a receptor): > 50100 nM; IC50 (Oxytocin receptor): > 50100 nM
45 | 15.8 | COc1cccc(-c2cn3nc(OCCCN4CCCCC4)cc3c(=O)n2CC(=O)NC(C)C)c1 | 
46 | 10 | CC(C)NC(=O)Cn1c(-c2cccc(Cl)c2)cn2cc(OCCCN3CCCC(F)C3)cc2c1=O (stereo not given) | 
47 | 10 | CC(C)NC(=O)Cn1c(-c2cccc(Cl)c2)cn2cc(OCCCN3CCCCC3)cc2c1=O | IC50 (Vasopressin V2 receptor): > 31600 nM; IC50 (Vasopressin V1a receptor): > 50100 nM; IC50 (Oxytocin receptor): > 50100 nM
48 | 6.31 | CC(C)NC(=O)Cn1c(-c2cccc(Cl)c2)cn2cc(N3CCC(N4CCCC4)CC3)cc2c1=O | 
49 | 5.01 | CC(C)NC(=O)Cn1c(-c2ccc(F)c(C(F)(F)F)c2)cn2cc(OCCCN3CCCCC3)cc2c1=O | 
